Assay results: patent publication US11235976B2, “Nanocarbon-iron composite system as well as composition, preparation method and use thereof” (Chongqing Lummy Pharmaceutical Co., LTD, priority 2017, dated 2022)

What was measured:
[1] = test system: H22 metastatic lymph nodes; assay: Lymph node metastasis inhibition experiment; format: in vivo, Kunming mouse; conditions: popliteal lymph nodes
Protocol: Milky white and thick ascites is extracted from the H22 tumor-bearing mice, the concentration is adjusted to be 3×10^7 cells/mL, 0.05 mL of cell suspension (about 1.5×10^6 cells) is inoculated subcutaneously into the left hind foot pads of each Kunming mouse, and thus a lymph node metastasis mouse model is obtained. The mice are treated when the diameter of the tumor reaches 6-8 mm and there is no ulcer and necrosis. The mice are randomly divided into four groups (10 mice per group): a negative control group (0.9% sodium chloride injection), a nanocarbon control group, an iron preparation control group and a nanocarbon-iron suspension experimental group. 10 days after inoculation, the mice are killed, and popliteal lymph nodes are collected, weighed and fixed for pathological examination.

[2] = test system: TPC-1 thyroid cancer cells; assay: Cell experiment, cell survival rate; format: cell-based; conditions: 48 h
Protocol: (§1) Cells growing in a log phase are collected, the concentration of the cell suspension is adjusted, 100 μL of cell suspension is added to each well and the cells are plated (edge wells are filled with sterile PBS) at a density of 1×10^3-10^4 cells/well. The cells are incubated for 24 hours at 37° C. under the condition of 5% CO2, a nanocarbon-iron solution having a concentration gradient (nanocarbon content: 125, 62.5, 15.63 and 3.91 μg/mL; and ferric ion content: 13.65, 6.83, 1.71 and 0.43 μg/mL) is added, and three sub-wells are set. Then the cells are incubated for 48 hours at 37° C. under the condition of 5% CO2. 10 μL of CCK8 solution is added to each well and then the cells are continuously incubated for 2 hours. The absorbance of each well is measured at OD=450 nm with the microplate reader. In addition, a negative control group, nanocarbon control groups having the same concentration and iron preparation control groups having the same concentration are set.
as §1, with “and 1” for “100”, “of a 6-well plate” for “and the cells are plated (edge wells are filled with sterile PBS)”, “3×10^4” for “1×10^3-10^4”, “1.71,” for “1.71 and”, “The” for “10 μL of CCK8 solution is added to each well and then the”, “trypsinized and counted.” for “continuously incubated for 2 hours. The absorbance of each well is measured at OD=450 nm with the microplate reader.”

[3] = test system: SKOV3 ovarian cancer cells; assay: Cell experiment, cell survival rate; format: cell-based; conditions: 48 h
Protocol: as §1
as §1, with “and 1” for “100”, “of a 6-well plate” for “and the cells are plated (edge wells are filled with sterile PBS)”, “3×10^4” for “1×10^3-10^4”, “1.71,” for “1.71 and”, “The” for “10 μL of CCK8 solution is added to each well and then the”, “trypsinized and counted.” for “continuously incubated for 2 hours. The absorbance of each well is measured at OD=450 nm with the microplate reader.”

[4] = test system: HCT116 colon cancer cells; assay: Cell experiment, cell survival rate; format: cell-based; conditions: 48 h
Protocol: as §1
as §1, with “and 1” for “100”, “of a 6-well plate” for “and the cells are plated (edge wells are filled with sterile PBS)”, “3×10^4” for “1×10^3-10^4”, “1.71,” for “1.71 and”, “The” for “10 μL of CCK8 solution is added to each well and then the”, “trypsinized and counted.” for “continuously incubated for 2 hours. The absorbance of each well is measured at OD=450 nm with the microplate reader.”

[5] = test system: murine liver cancer H22 cells; assay: Cell experiment, cell survival rate; format: cell-based; conditions: 48 h
Protocol: as §1
as §1, with “and 1” for “100”, “of a 6-well plate” for “and the cells are plated (edge wells are filled with sterile PBS)”, “3×10^4” for “1×10^3-10^4”, “1.71,” for “1.71 and”, “The” for “10 μL of CCK8 solution is added to each well and then the”, “trypsinized and counted.” for “continuously incubated for 2 hours. The absorbance of each well is measured at OD=450 nm with the microplate reader.”

[6] = test system: SGC-7901 stomach cancer cells; assay: Cell experiment, cell survival rate; format: cell-based; conditions: 48 h
Protocol: as §1
as §1, with “and 1” for “100”, “of a 6-well plate” for “and the cells are plated (edge wells are filled with sterile PBS)”, “3×10^4” for “1×10^3-10^4”, “1.71,” for “1.71 and”, “The” for “10 μL of CCK8 solution is added to each well and then the”, “trypsinized and counted.” for “continuously incubated for 2 hours. The absorbance of each well is measured at OD=450 nm with the microplate reader.”

[7] = test system: SMMC7721 liver cancer cells; assay: Cell experiment, cell survival rate; format: cell-based; conditions: SMMC-7721, 48 h
Protocol: as §1
as §1, with “and 1” for “100”, “of a 6-well plate” for “and the cells are plated (edge wells are filled with sterile PBS)”, “3×10^4” for “1×10^3-10^4”, “1.71,” for “1.71 and”, “The” for “10 μL of CCK8 solution is added to each well and then the”, “trypsinized and counted.” for “continuously incubated for 2 hours. The absorbance of each well is measured at OD=450 nm with the microplate reader.”

[8] = iron preparation alone 0.43 μg/mL
[9] = iron preparation alone 1.71 μg/mL
[10] = iron preparation alone 6.83 μg/mL
[11] = iron preparation alone 13.65 μg/mL

## ferrous sulfate
[1]
  Weight of Lymph Node: 44.27 ± 20.69 mg
[2]; [8]
  Cell Survival Rate: 100%
[2]; [9]
  Cell Survival Rate: 100%
[2]; [10]
  Cell Survival Rate: 98.75%
[2]; [11]
  Cell Survival Rate: 93.64%
[3]; [8]
  Cell Survival Rate: 97.89%
[3]; [9]
  Cell Survival Rate: 100%
[3]; [10]
  Cell Survival Rate: 95.78%
[3]; [11]
  Cell Survival Rate: 96.47%
[4]; [8]
  Cell Survival Rate: 98.32%
[4]; [9]
  Cell Survival Rate: 100%
[4]; [10]
  Cell Survival Rate: 97.68%
[4]; [11]
  Cell Survival Rate: 94.07%
[5]; [8]
  Cell Survival Rate: 100%
[5]; [9]
  Cell Survival Rate: 95.24%
[5]; [10]
  Cell Survival Rate: 97.16%
[5]; [11]
  Cell Survival Rate: 100%
[6]; [8]
  Cell Survival Rate: 100%
[6]; [9]
  Cell Survival Rate: 93.78%
[6]; [10]
  Cell Survival Rate: 98.42%
[6]; [11]
  Cell Survival Rate: 100%
[7]; [8]
  Cell Survival Rate: 100%
[7]; [9]
  Cell Survival Rate: 100%
